{"source": "patent US4413009A", "about": "“N-((Alkylamino)carbonyl)-N-(((alkylamino)carbonyl)oxy)acylamides with antineoplastic activity” (priority 1982, dated 1983)", "key": {"HeLa cells": {"test_system": "HeLa cells", "assay": "HeLa cell colony cytotoxicity / growth inhibition test", "assay_type": "cell-based, human", "details": "8 days, 0-50 μg/ml", "method": "HeLa cells were seeded in 24-well tissue culture plates at a concentration of 30 cells per well in 1 ml of growth medium (Eagle's minimum essential medium with 5 percent HIFCS). The plates were incubated at 36° C. for 24 hours after which the growth medium was removed. The cells were resuspended in 1 ml of fresh growth medium described above together with a measured quantity of (0-50 μg/ml) of one of the compounds of this invention. The 0 μg/ml concentration served as a control. The tissue culture plates were then incubated at 36° C. for 8 days at which time the medium was removed and the cells were fixed and stained with 0.1% crystal violet in 20% ethanol. The HeLa cell colonies were counted macroscopically, and comparisons of colony size in treated and control wells were made. Test compounds were considered cytotoxic at concentrations which reduced the number of HeLa cell colonies compared to control by 50% or more. Test compounds of the invention were considered to cause HeLa cell growth inhibition at concentrations which reduced the size of colonies by a measurable amount when compared to control."}, "P388 leukemia": {"test_system": "P388 leukemia", "assay": "Antineoplastic activity against P388 lymphocytic leukemia in mice (IP), survival time and toxicity day survivors", "assay_type": "in vivo, mice (CDF1)", "details": "for Toxicity Day Survivors: survivors/started", "method": "(A) Test mice (CDF1 mice) were injected intraperitoneally (IP) with ascitic fluid containing 10^6 cells of P388 lymphocytic leukemia. The test compound was administered in a sialine -Tween 80 carrier at the appropriate dosage, IP daily for 9 days; the initial treatment performed the first day after tumor inoculation. Control mice received no compound."}, "[1]": {"test_system": "MX-1 human breast xenograft", "assay": "Activity against MX-1 human breast xenograft in subrenal capsule of athymic mice, tumor size change and toxicity day survivors", "assay_type": "in vivo, human (xenograft in athymic Swiss Nu/Nu mice)", "details": "survivors/started", "method": "(B) A tumor fragment (MX-1 human breast xenograft) having a diameter of between 9 and 12 ocular micrometer units (OMU) (approximately 1×1×1 millimeter) was implanted and measured in situ in the subrenal capsule of athymic Swiss (Nu/Nu Swiss) mice. The appropriate dosage of the test compound in a saline carrier was administered by subcutaneous injection once daily for 10 days; the initial treatment was performed on the first day after tumor implant. No test compound was administered to the control mice. Test mice were sacrificed on the eleventh day and tumor size noted. The change in tumor diameter (from day 0 (implant day) to day 11 (sacrifice day)) as compared with the tumor size of the control was used as an evaluation of tumor growth or regression."}, "[2]": {"details": "Experiment No. 1, 50.00 mg/kg per injection IP daily for 9 days"}, "[3]": {"details": "Experiment No. 2, 12.50 mg/kg per injection IP daily for 9 days"}, "[4]": {"details": "Experiment No. 2, 25.00 mg/kg per injection IP daily for 9 days"}, "[5]": {"details": "Experiment No. 2, 50.00 mg/kg per injection IP daily for 9 days"}}}
{"smiles": "CNC(=O)ON(C(C)=O)C(=O)NC", "note": "[Example 1, N-((Methylamino)carbonyl)-N-(((methylamino)carbonyl)oxy)acetamide]", "values": [{"measurement": "Cell Growth Inhibition: concentration at which the size of the HeLa colonies were reduced by a measurable amount (as compared to control)", "setting": "HeLa cells", "value": 12.5, "unit": "µg/mL"}, {"measurement": "median survival time of the test animals (in words)", "setting": "P388 leukemia; 50 mg/kg per injection, one experiment", "value": "increased the median survival time"}, {"measurement": "median survival time of the test animals (in words)", "setting": "P388 leukemia; 12.50, 25 and 50 mg/kg per injection, another experiment", "value": "increased the median survival time"}, {"measurement": "T/C % (median survival time, treated vs control)", "setting": "P388 leukemia; [2]", "value": 142, "unit": "%"}, {"measurement": "Toxicity Day Survivors", "setting": "P388 leukemia; [2]", "value": "06/06"}, {"measurement": "Toxicity Day Survivors", "setting": "P388 leukemia; Experiment No. 1, 100.00 mg/kg per injection IP daily for 9 days", "value": "01/06"}, {"measurement": "Toxicity Day Survivors", "setting": "P388 leukemia; Experiment No. 1, 200.00 mg/kg per injection IP daily for 9 days", "value": "00/06"}, {"measurement": "T/C % (median survival time, treated vs control)", "setting": "P388 leukemia; [3]", "value": 131, "unit": "%"}, {"measurement": "Toxicity Day Survivors", "setting": "P388 leukemia; [3]", "value": "06/06"}, {"measurement": "T/C % (median survival time, treated vs control)", "setting": "P388 leukemia; [4]", "value": 126, "unit": "%"}, {"measurement": "Toxicity Day Survivors", "setting": "P388 leukemia; [4]", "value": "06/06"}, {"measurement": "T/C % (median survival time, treated vs control)", "setting": "P388 leukemia; [5]", "value": 141, "unit": "%"}, {"measurement": "Toxicity Day Survivors", "setting": "P388 leukemia; [5]", "value": "06/06"}, {"measurement": "Toxicity Day Survivors", "setting": "P388 leukemia; Experiment No. 2, 100.00 mg/kg per injection IP daily for 9 days", "value": "03/06"}, {"measurement": "median survival time of the test mice afflicted with P388 leukemia (in words)", "setting": "P388 leukemia; Table 3 data", "value": "increased the median survival time"}, {"measurement": "Toxicity Day Survivors", "setting": "[1]; Experiment 1, 12.5 mg/kg s.c. daily for 10 days", "value": "03/03"}, {"measurement": "Toxicity Day Survivors", "setting": "[1]; Experiment 1, 25 mg/kg s.c. daily for 10 days", "value": "03/03"}, {"measurement": "Toxicity Day Survivors", "setting": "[1]; Experiment 1, 50 mg/kg s.c. daily for 10 days", "value": "03/03"}, {"measurement": "Toxicity Day Survivors", "setting": "[1]; Experiment 1, 100 mg/kg s.c. daily for 10 days", "value": "01/03"}, {"measurement": "Toxicity Day Survivors", "setting": "[1]; Experiment 2, 25 mg/kg s.c. daily for 10 days", "value": "06/06"}, {"measurement": "Toxicity Day Survivors", "setting": "[1]; Experiment 2, 50 mg/kg s.c. daily for 10 days", "value": "06/06"}, {"measurement": "Toxicity Day Survivors", "setting": "[1]; Experiment 2, 100 mg/kg s.c. daily for 10 days", "value": "06/06"}, {"measurement": "Toxicity Day Survivors", "setting": "[1]; Experiment 2, 200 mg/kg s.c. daily for 10 days", "value": "05/06"}, {"measurement": "Toxicity Day Survivors", "setting": "[1]; Experiment 3, 25 mg/kg s.c. daily for 10 days", "value": "06/06"}, {"measurement": "Toxicity Day Survivors", "setting": "[1]; Experiment 3, 50 mg/kg s.c. daily for 10 days", "value": "06/06"}, {"measurement": "Toxicity Day Survivors", "setting": "[1]; Experiment 3, 100 mg/kg s.c. daily for 10 days", "value": "06/06"}, {"measurement": "Toxicity Day Survivors", "setting": "[1]; Experiment 3, 200 mg/kg s.c. daily for 10 days", "value": "00/06"}, {"measurement": "Toxicity Day Survivors", "setting": "[1]; Experiment 4, 25 mg/kg s.c. daily for 10 days", "value": "03/03"}, {"measurement": "Toxicity Day Survivors", "setting": "[1]; Experiment 4, 50 mg/kg s.c. daily for 10 days", "value": "02/02"}, {"measurement": "Toxicity Day Survivors", "setting": "[1]; Experiment 4, 100 mg/kg s.c. daily for 10 days", "value": "03/03"}, {"measurement": "Toxicity Day Survivors", "setting": "[1]; Experiment 4, 200 mg/kg s.c. daily for 10 days", "value": "01/03"}]}
